ChEMBL document CHEMBL1201862, “PubChem BioAssay data set” (2004)
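A five-concentration, 48-hour dose response in 96-well plates underlies each endpoint, interpolated linearly between surrounding concentrations. GI50 = concentration required for 50% inhibition of growth.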 Active and inactive are the calls of the source. Rule as the data show it: active = GI50 up to about 1.1 µM and inactive = higher.

What was measured:
Assay in all cases: growth of human tumour cells (NCI), 48 h
CCRF-CEM = test system: CCRF-CEM
HL-60 = test system: HL-60
HT-29 = test system: HT-29
IGROV-1 = test system: IGROV-1
NCI-H522 = test system: NCI-H522
OVCAR-3 = test system: OVCAR-3
RXF 393 = test system: RXF 393
SK-MEL-28 = test system: SK-MEL-28
SK-MEL-2 = test system: SK-MEL-2
SK-OV-3 = test system: SK-OV-3
SNB-19 = test system: SNB-19
SR = test system: SR
SW-620 = test system: SW-620
UO-31 = test system: UO-31
A498 = test system: A498
SF-295 = test system: SF-295
CAKI-1 = test system: CAKI-1
MDA-MB-435 = test system: MDA-MB-435
PC-3 = test system: PC-3

Measured: GI50

CC(C)=CCC/C(C)=C/Cc1c(O)ccc2c1[nH]c1cc(O)c(C)cc12
inactive: CCRF-CEM 7.55 µM | HL-60 7.53 µM | HT-29 > 25 µM | IGROV-1 14.7 µM | NCI-H522 7.96 µM | OVCAR-3 5.73 µM | RXF 393 14 µM | SK-MEL-28 > 25 µM | SK-MEL-2 > 25 µM | SK-OV-3 24.2 µM | SNB-19 9.46 µM | SR 8.13 µM | SW-620 13.9 µM | UO-31 7.73 µM

CCOc1ccc(OCC(=O)O)c2c1CCCC2=O
inactive: A498 > 100 µM | CCRF-CEM > 10 µM | HL-60 > 100 µM | HT-29 > 100 µM | IGROV-1 > 100 µM | NCI-H522 > 100 µM | OVCAR-3 > 100 µM | RXF 393 > 100 µM | SF-295 > 100 µM | SK-MEL-28 > 100 µM | SK-MEL-2 > 100 µM | SK-OV-3 > 100 µM | SNB-19 > 100 µM | SR > 100 µM | SW-620 > 100 µM | UO-31 > 100 µM

Cn1sc2ccccc2c1=S
inactive: A498 48.5 µM | CAKI-1 11.7 µM | CCRF-CEM 2.44 µM | HL-60 5.47 µM | HT-29 10.7 µM | IGROV-1 13 µM | NCI-H522 3.16 µM | OVCAR-3 4.2 µM | RXF 393 3.08 µM | SF-295 12.6 µM | SK-MEL-28 8.11 µM | SK-MEL-2 20 µM | SK-OV-3 36.1 µM | SNB-19 12.2 µM | SR 14 µM | SW-620 2.28 µM | UO-31 15.3 µM

COc1cc(N2C(=O)C(=O)C3(CCCCC3)C2=O)cc(OC)c1OC
inactive: CAKI-1 > 100 µM | CCRF-CEM > 100 µM | HL-60 > 100 µM | HT-29 > 100 µM | MDA-MB-435 > 100 µM | NCI-H522 > 100 µM | OVCAR-3 > 100 µM | PC-3 > 100 µM | RXF 393 > 100 µM | SF-295 > 100 µM | SK-MEL-28 > 100 µM | SK-MEL-2 > 100 µM | SK-OV-3 > 100 µM | SNB-19 > 100 µM | SR > 100 µM | SW-620 > 100 µM | UO-31 73.3 µM

Cc1nc(-c2ccccc2)cc2c1c(=O)oc1ccccc12
inactive: CAKI-1 > 100 µM | CCRF-CEM > 100 µM | HL-60 > 100 µM | HT-29 > 100 µM | IGROV-1 > 100 µM | NCI-H522 > 100 µM | OVCAR-3 > 100 µM | RXF 393 > 100 µM | SF-295 > 100 µM | SK-MEL-28 > 100 µM | SK-MEL-2 > 100 µM | SK-OV-3 > 100 µM | SNB-19 > 100 µM | SR > 100 µM | SW-620 > 100 µM | UO-31 > 100 µM

CCOC(=O)c1c(-c2ccc(O)c(OC)c2)c(C#N)c(=S)n(C2OC(CO)C(O)C(O)C2O)c1-c1ccccc1 (stereo not given)
inactive: A498 > 100 µM | CAKI-1 > 100 µM | CCRF-CEM > 100 µM | HL-60 > 100 µM | HT-29 > 100 µM | IGROV-1 > 100 µM | MDA-MB-435 > 100 µM | OVCAR-3 > 100 µM | PC-3 > 100 µM | RXF 393 > 100 µM | SF-295 > 100 µM | SK-MEL-28 > 100 µM | SNB-19 > 100 µM | SR > 100 µM | SW-620 > 100 µM | UO-31 > 100 µM

CCCCOC(=O)NC(=O)c1cn(CCCOC(=O)CCCCCCCCC(=O)OCCCn2cc(C(=O)NC(=O)OCCCC)c(=O)n(C)c2=O)c(=O)n(C)c1=O
inactive: A498 > 100 µM | CAKI-1 > 100 µM | CCRF-CEM > 100 µM | HL-60 > 100 µM | HT-29 > 100 µM | IGROV-1 > 100 µM | NCI-H522 > 100 µM | OVCAR-3 > 100 µM | RXF 393 > 100 µM | SF-295 > 100 µM | SK-MEL-28 > 100 µM | SK-MEL-2 > 100 µM | SNB-19 > 100 µM | SR > 100 µM | SW-620 > 100 µM | UO-31 > 100 µM

Cc1cc(NS(=O)(=O)c2ccc(NC(=O)c3cccn4c(=O)c5ccccc5nc34)cc2)no1
inactive: A498 > 100 µM | CAKI-1 > 100 µM | CCRF-CEM > 100 µM | HL-60 > 100 µM | HT-29 > 100 µM | IGROV-1 > 100 µM | NCI-H522 > 100 µM | OVCAR-3 > 100 µM | RXF 393 > 100 µM | SF-295 > 100 µM | SK-MEL-28 > 100 µM | SK-OV-3 > 100 µM | SNB-19 > 100 µM | SR > 100 µM | SW-620 > 100 µM | UO-31 > 100 µM

O=c1[nH]c(=O)n(C2OC(CO)C(O)C2O)cc1/N=N/NCc1ccccc1 (stereo not given)
inactive: A498 > 100 µM | CAKI-1 > 100 µM | CCRF-CEM > 69.5 µM | HL-60 > 64.3 µM | HT-29 > 100 µM | IGROV-1 > 100 µM | NCI-H522 > 100 µM | OVCAR-3 > 100 µM | RXF 393 > 79.4 µM | SF-295 > 100 µM | SK-MEL-28 > 100 µM | SK-MEL-2 > 100 µM | SK-OV-3 > 100 µM | SNB-19 > 100 µM | SR > 63.2 µM | SW-620 > 53.5 µM | UO-31 > 100 µM

Cc1nc(C(=O)O)c2ccccc2n1
inactive: A498 > 100 µM | CAKI-1 > 100 µM | CCRF-CEM > 100 µM | HL-60 > 100 µM | HT-29 > 100 µM | IGROV-1 > 100 µM | OVCAR-3 > 100 µM | RXF 393 > 100 µM | SF-295 > 100 µM | SK-MEL-28 > 100 µM | SK-MEL-2 > 100 µM | SK-OV-3 > 100 µM | SNB-19 > 100 µM | SR > 100 µM | SW-620 > 100 µM | UO-31 > 100 µM

COC1OC(CBr)C(OC(c2ccccc2)(c2ccccc2)c2ccccc2)C(OC(c2ccccc2)(c2ccccc2)c2ccccc2)C1OC(c1ccccc1)(c1ccccc1)c1ccccc1 (stereo not given)
inactive: A498 78.2 µM | CAKI-1 > 100 µM | CCRF-CEM > 100 µM | HL-60 > 100 µM | HT-29 96.6 µM | IGROV-1 78.2 µM | MDA-MB-435 > 100 µM | NCI-H522 16 µM | OVCAR-3 14.1 µM | RXF 393 33.4 µM | SF-295 42 µM | SK-MEL-28 > 100 µM | SK-OV-3 23 µM | SNB-19 24.3 µM | SR > 100 µM | SW-620 64.1 µM | UO-31 14.3 µM

COc1ccc(C(=O)c2c(C(C(=O)c3ccc(OC)cc3)C(=O)c3ccc(OC)cc3)n(C(=O)c3ccc(OC)cc3)c3ccccc23)cc1
inactive: A498 > 100 µM | CAKI-1 > 100 µM | CCRF-CEM > 100 µM | HL-60 > 100 µM | HT-29 > 100 µM | IGROV-1 > 100 µM | NCI-H522 > 100 µM | OVCAR-3 > 100 µM | RXF 393 > 100 µM | SF-295 > 100 µM | SK-MEL-28 > 100 µM | SK-MEL-2 > 100 µM | SK-OV-3 > 100 µM | SNB-19 > 100 µM | SR > 100 µM | SW-620 > 100 µM | UO-31 > 100 µM
